Where two headings read alike, the source gives them in different places.
How the values were obtained:
[1] = Dissolution study, USP dissolution apparatus II; type: physicochemical; conditions: 500 ml 0.2% polysorbate 20 in 0.05 M phosphate buffer pH 6.5, paddle 75 rpm; 8 mg c.c. added except tablets as footnoted
Experimental: The medium used for dissolution studies was 500 ml of 0.2% polysorbate 20 in 0.05 M phosphate buffer pH 6.5 with a paddle speed of 75 rpm (USP dissolution apparatus II). In all dissolution tests, 8 mg of candesartan cilexetil was added to the medium (except where other is stated). After extraction with 60% (v/v) acetonitrile in water (filter pore size 0.45 μm), the amount of candesartan cilexetil was determined by liquid chromatography and UV-detection at 254 nm.

[2] = Bioavailability in rats after per-oral administration; conditions: rat, in vivo, read-out: Relative bioavailability
[3] = cited from earlier work

- Drug dissolved after 5 minutes [1]: 24
- Drug dissolved after 10 minutes [1]: 43
- Drug dissolved after 15 minutes [1]: 54
- Drug dissolved after 20 minutes [1]: 61
- bioavailability ([2]; given as a suspension): 19%
- bioavailability ([2]; given in solution): 50%
SMILES: CCOc1nc2cccc(C(=O)OC(C)OC(=O)OC3CCCCC3)c2n1Cc1ccc(-c2ccccc2-c2nnn[nH]2)cc1 (stereo not shown) [c.c., candesartan cilexetil]
- Solubility in water [3]: < 0.05 µg/mL

— patent US20080058399A1, “Pharmaceutical Compositions” (ASTRAZENECA AB, priority 2006, published 2008)
